This assay concerns the target T1, Androgen Receptor (Homo sapiens, UniProt P10275).
T1 construct: endogenous in cells; host or cells: VCaP cells
T1 sequence (P10275 1-920): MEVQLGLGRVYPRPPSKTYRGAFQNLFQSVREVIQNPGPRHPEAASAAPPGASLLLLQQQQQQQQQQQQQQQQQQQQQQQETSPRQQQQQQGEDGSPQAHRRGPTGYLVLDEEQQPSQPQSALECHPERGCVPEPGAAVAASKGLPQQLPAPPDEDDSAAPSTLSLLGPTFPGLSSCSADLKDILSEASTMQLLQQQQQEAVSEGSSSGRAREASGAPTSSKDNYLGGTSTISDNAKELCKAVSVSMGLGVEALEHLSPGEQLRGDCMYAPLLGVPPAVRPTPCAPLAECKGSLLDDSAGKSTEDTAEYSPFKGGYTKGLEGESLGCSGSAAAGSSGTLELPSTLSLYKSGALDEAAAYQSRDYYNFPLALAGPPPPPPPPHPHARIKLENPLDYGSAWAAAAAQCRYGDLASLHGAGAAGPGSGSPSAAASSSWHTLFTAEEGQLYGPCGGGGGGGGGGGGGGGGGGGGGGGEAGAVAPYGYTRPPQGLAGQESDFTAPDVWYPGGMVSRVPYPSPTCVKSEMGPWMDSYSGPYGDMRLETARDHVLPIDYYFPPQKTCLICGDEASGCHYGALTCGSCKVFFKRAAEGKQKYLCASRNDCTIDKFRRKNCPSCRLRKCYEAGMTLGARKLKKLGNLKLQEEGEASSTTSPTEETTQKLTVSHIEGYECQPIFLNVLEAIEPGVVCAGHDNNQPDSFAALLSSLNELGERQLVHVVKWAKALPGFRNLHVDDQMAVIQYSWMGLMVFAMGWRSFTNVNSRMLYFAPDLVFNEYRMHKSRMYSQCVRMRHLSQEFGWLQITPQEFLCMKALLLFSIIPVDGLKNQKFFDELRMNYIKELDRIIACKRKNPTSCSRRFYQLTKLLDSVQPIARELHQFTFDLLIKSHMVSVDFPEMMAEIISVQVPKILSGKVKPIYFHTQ
Briefly: Androgen Receptor ELISA assay (PathScan AR ELISA) in VCaP cells: AR degradation, Dmax and DC50. In kind it is cell-based. The conditions noted are these: VCaP cells, Table 35; for DC50: read-out: VCaP DC50; for Dmax: VCaP, read-out: VCaP Dmax (%). Summed up:
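VCaP cells, 30,000/well, grown ≥3 days in phenol red-free RPMI with 5% charcoal-stripped FBS; compound added in 0.1% DMSO with 0.1 nM R1881, 7 half-log doses, 24 h. Lysate AR quantified by PathScan sandwich ELISA, HRP/TMB read at 450 nm, giving DC50 and Dmax.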
(ELISA stands for enzyme-linked immunosorbent assay.)

A word on the DC50: it is the concentration giving 50% degradation. A word on the Dmax: it is the greatest extent of degradation seen.

Consider `Cc1ncsc1-c1ccc([C@@H](C)NC(=O)[C@H]2C[C@H](O)CN2C(=O)[C@H](NC(=O)COCCCCCNc2ccc(C(=O)N[C@H]3C(C)(C)[C@H](Oc4ccc(C#N)c(Cl)c4)C3(C)C)cc2)C(C)(C)C)cc1` [Example 454], for which the DC50 is above 0.501 µM and the Dmax lay within 26 to 50%.

With `Cc1ncsc1-c1ccc([C@H](C)NC(=O)[C@@H]2C[C@@H](O)CN2C(=O)C(NC(=O)COCCCCCNc2ccc(C(=O)N[C@H]3C(C)(C)[C@@H](Oc4ccc(C#N)c(Cl)c4)C3(C)C)cc2)C(C)(C)C)cc1` (some centres unmarked) [Example 455], the DC50 is above 0.501 µM and the Dmax lay in the range of 51 to 70%.

For `Cc1ncsc1-c1ccc([C@H](C)NC(=O)[C@@H]2C[C@@H](O)CN2C(=O)[C@@H](NC(=O)COCCC2CCN(c3ccc(C(=O)N[C@H]4C(C)(C)[C@H](Oc5ccc(C#N)c(Cl)c5)C4(C)C)cc3)CC2)C(C)(C)C)cc1` [Example 456], the DC50 is below 0.05 µM and the Dmax was above 71%.

As to `Cc1ncsc1-c1ccc([C@H](C)NC(=O)[C@@H]2C[C@@H](O)CN2C(=O)[C@H](NC(=O)COCCCCCNc2ccc(C(=O)N[C@H]3C(C)(C)[C@H](Oc4ccc(C#N)c(Cl)c4)C3(C)C)cc2)C(C)(C)C)cc1` [Example 457], the DC50 is above 0.501 µM and the Dmax is below 25%.

`Cc1ncsc1-c1ccc([C@H](C)NC(=O)[C@H]2C[C@@H](O)CN2C(=O)[C@@H](NC(=O)COCCCCCNc2ccc(C(=O)N[C@H]3C(C)(C)[C@H](Oc4ccc(C#N)c(Cl)c4)C3(C)C)cc2)C(C)(C)C)cc1` [Example 458]: the DC50 is above 0.501 µM and the Dmax was below 25%.

In the case of `Cc1ncsc1-c1ccc([C@@H](C)NC(=O)[C@@H]2C[C@@H](O)CN2C(=O)[C@@H](NC(=O)COCCCCCNc2ccc(C(=O)N[C@H]3C(C)(C)[C@H](Oc4ccc(C#N)c(Cl)c4)C3(C)C)cc2)C(C)(C)C)cc1` [Example 459], the DC50 was above 0.501 µM and the Dmax was 26 to 50%.

On to `Cc1ncsc1-c1ccc([C@H](C)NC(=O)[C@@H]2CC(OC(=O)[C@@H]3CCCN3)CN2C(=O)[C@@H](NC(=O)COCCCCCNc2ccc(C(=O)N[C@H]3C(C)(C)[C@H](Oc4ccc(C#N)c(Cl)c4)C3(C)C)cc2)C(C)(C)C)cc1` (some centres unmarked) [Example 461], for which the 50% degradation concentration (DC50) is below 0.05 µM and the Dmax is above 71%.

Regarding `Cc1ncsc1-c1ccc([C@H](CN2CCCC2)NC(=O)[C@@H]2C[C@@H](O)CN2C(=O)[C@@H](NC(=O)COCCCCCOc2ccc(C(=O)N[C@H]3C(C)(C)[C@H](Oc4ccc(C#N)c(Cl)c4)C3(C)C)cc2)C(C)(C)C)cc1` [Example 465], the DC50 was below 0.05 µM and the maximal degradation (Dmax) is above 71%.

For `Cc1ncsc1-c1ccc([C@@H](CN2CCCC2)NC(=O)[C@@H]2C[C@@H](O)CN2C(=O)[C@@H](NC(=O)COCCCCCOc2ccc(C(=O)N[C@H]3C(C)(C)[C@H](Oc4ccc(C#N)c(Cl)c4)C3(C)C)cc2)C(C)(C)C)cc1` [Example 466], the DC50 fell in the range of 0.051 to 0.5 µM and the Dmax is above 71%.

For the molecule `Cc1ncsc1-c1ccc([C@H](C)NC(=O)[C@@H]2C[C@@H](OC(=O)C(C)C)CN2C(=O)[C@@H](NC(=O)COCCCCCNc2ccc(C(=O)N[C@H]3C(C)(C)[C@H](Oc4ccc(C#N)c(Cl)c4)C3(C)C)cc2)C(C)(C)C)cc1` [Example 468], the DC50 is below 0.05 µM and the greatest degradation seen (Dmax) was above 71%.

For `Cc1ncsc1-c1ccc([C@@H](CN(C)C)NC(=O)[C@@H]2C[C@@H](O)CN2C(=O)[C@@H](NC(=O)COCCCCCOc2ccc(C(=O)N[C@H]3C(C)(C)[C@H](Oc4ccc(C#N)c(Cl)c4)C3(C)C)cc2)C(C)(C)C)cc1` [Example 471], the half-maximal degradation concentration (DC50) was above 0.501 µM and the Dmax was in the range of 26 to 50%.

Consider `Cc1ncsc1-c1ccc(CNC(=O)[C@@H]2C[C@@H](O)CN2C(=O)[C@@H](NC(=O)CS(=O)(=O)CCOc2ccc(-c3ccc(C(=O)N[C@H]4C(C)(C)[C@H](Oc5ccc(C#N)c(Cl)c5)C4(C)C)cc3)cc2)C(C)(C)C)cc1` [Example 472], for which the DC50 is below 0.05 µM and the maximal degradation (Dmax) was above 71%.

With `Cc1ncsc1-c1ccc([C@H](C)NC(=O)[C@@H]2C[C@@H](O)CN2C(=O)[C@@H](NC(=O)COCCCCCNc2ccc(C(=O)N(C)[C@H]3C(C)(C)[C@H](Oc4ccc(C#N)c(Cl)c4)C3(C)C)cc2)C(C)(C)C)cc1` [Example 473], the 50% degradation concentration (DC50) is below 0.05 µM and the Dmax is 26 to 50%.

On to `Cc1ncsc1-c1ccc([C@@H](CN)NC(=O)[C@@H]2C[C@@H](O)CN2C(=O)[C@@H](NC(=O)COCCCCCOc2ccc(C(=O)N[C@H]3C(C)(C)[C@H](Oc4ccc(C#N)c(Cl)c4)C3(C)C)cc2)C(C)(C)C)cc1` [Example 474], for which the DC50 was below 0.05 µM and the Dmax lay within 26 to 50%.

Turning to `Cc1ncsc1-c1ccc([C@H](CN)NC(=O)[C@@H]2C[C@@H](O)CN2C(=O)[C@@H](NC(=O)COCCCCCOc2ccc(C(=O)N[C@H]3C(C)(C)[C@H](Oc4ccc(C#N)c(Cl)c4)C3(C)C)cc2)C(C)(C)C)cc1` [Example 475], the 50% degradation concentration (DC50) was below 0.05 µM and the Dmax was above 71%.

As for `Cc1ncsc1-c1ccc(CNC(=O)[C@@H]2C[C@@H](O)CN2C(=O)[C@@H](NC(=O)COCCCCCS(=O)(=O)c2ccc(C(=O)N[C@H]3C(C)(C)[C@H](Oc4ccc(C#N)c(Cl)c4)C3(C)C)cc2)C(C)(C)C)cc1` [Example 476], the 50% degradation concentration (DC50) is below 0.05 µM and the Dmax is above 71%.

`Cc1ncsc1-c1ccc(CNC(=O)[C@@H]2C[C@@H](O)CN2C(=O)[C@@H](NC(=O)COCCCOCCCCCOc2ccc(N3C(=S)N(c4ccccc4)C(=O)C3(C)C)cc2)C(C)(C)C)cc1` [Example 477]: the Dmax was below 25%.

On to `Cc1ncsc1-c1ccc(CNC(=O)[C@@H]2C[C@@H](O)CN2C(=O)[C@@H](NC(=O)COCCCOCCCCCOc2ccc(N3C(=S)N(c4cccc(C(F)(F)F)c4)C(=O)C3(C)C)cc2)C(C)(C)C)cc1` [Example 478], for which the DC50 was 0.051 to 0.5 µM and the Dmax lay in the range of 26 to 50%.

With `Cc1ncsc1-c1ccc(CNC(=O)[C@@H]2C[C@@H](O)CN2C(=O)[C@@H](NC(=O)COCCCOCCCCCOc2ccc(N3C(=S)N(c4ccc(C#N)cc4)C(=O)C3(C)C)cc2)C(C)(C)C)cc1` [Example 479], the maximal degradation (Dmax) lay in the range of 26 to 50%.

Consider `CC(C)(C)[C@H](NC(=O)CNCCCCCNc1ccc(C(=O)N[C@H]2C(C)(C)[C@H](Oc3ccc(C#N)c(Cl)c3)C2(C)C)cc1)C(=O)N1C[C@H](O)C[C@H]1C(=O)NCc1ccc(C#N)cc1` [Example 480], for which the DC50 is above 0.501 µM and the Dmax fell in the range of 26 to 50%.

On to `Cc1ncsc1-c1ccc(CNC(=O)[C@@H]2C[C@H](O)CN2C(=O)[C@@H](NC(=O)COCCOc2ccc(-c3ccc(C(=O)N[C@H]4C(C)(C)[C@H](Oc5ccc(C#N)c(Cl)c5)C4(C)C)cc3)cc2)C(C)(C)C)cc1` [Example 481], for which the DC50 is above 0.501 µM and the Dmax is below 25%.

Take `Cc1ncsc1-c1ccc([C@H](C)NC(=O)[C@@H]2C[C@@H](O)CN2C(=O)[C@@H](NC(=O)COCCCCCNc2ccc(C(=O)N[C@H]3C(C)(C)[C@H](Oc4ccc(C#N)c(Cl)c4)C3(C)C)nc2)C(C)(C)C)cc1` [Example 482]: the DC50 is below 0.05 µM and the Dmax fell in the range of 51 to 70%.

As to `Cc1ncsc1-c1ccc([C@H](C)NC(=O)[C@@H]2C[C@@H](O)CN2C(=O)[C@@H](NC(=O)CNCCNc2ccc(-c3ccc(C(=O)N[C@H]4C(C)(C)[C@H](Oc5ccc(C#N)c(Cl)c5)C4(C)C)cc3)cn2)C(C)(C)C)cc1` [Example 483], the DC50 was below 0.05 µM and the maximal degradation (Dmax) was above 71%.

Source of the values: US11427548B2 (Arvinas Operations, Inc., priority 2015, dated 2022).
